Assays:
[1] = Polymorphic stability of Rivaroxaban dihydrate on storage (infrared spectroscopy); type: physicochemical; conditions: about 25° C., relative humidity of about 76%, 6 weeks
Method: Infrared spectra (IR) were collected on a MKII Golden Gate™ Single Reflection Diamond ATR (attenuated total reflection) cell with a Bruker Tensor 27 FTIR spectrometer with 4 cm-1 resolution at ambient conditions. To collect a spectrum a spatula tip of a sample was applied to the surface of the diamond in powder form. Then the sample was pressed onto the diamond with a sapphire anvil and the spectrum was recorded. A spectrum of the clean diamond was used as background spectrum. A typical precision of the wavenumber values is in the range of about ±2 cm-1. Thus, an infrared peak that appears at 1716 cm-1 can appear between 1714 and 1718 cm-1 on most infrared spectrometers under standard conditions. […]

[2] = Moisture desorption isotherm / exposure to low relative humidity; type: physicochemical; conditions: for relative humidity at which the dihydrate converts to an anhydrate form: 25° C., FIG. 7
Method: The moisture desorption isotherm were recorded with a SPS-11 moisture sorption analyzer (MD Messtechnik, Ulm, and D). The measurement cycle was performed by a decrease relative humidity (RH) in 10% steps. The equilibrium condition for each step was set to a mass constancy of ±0.001% over 50 min. The temperature was 25° C.±01° C.

[3] = cited from earlier work; for solubility (in words): WO 2007/039132, CHMP assessment report EMEA/H/C/000944

O=C(NC[C@H]1CN(c2ccc(N3CCOCC3=O)cc2)C(=O)O1)c1ccc(Cl)s1 [crystalline dihydrate of Rivaroxaban, Rivaroxaban Dihydrate]
polymorphic stability on storage ([1]; listed as Rivaroxaban Dihydrate): polymorphic stable
polymorphic stability on storage ([1]; listed as crystalline dihydrate): does not convert to other polymorphic forms
relative humidity at which the dihydrate converts to an anhydrate form [2]: less than 20%
relative humidity at which the dihydrate converts to an anhydrate form ([2]; listed as dihydrate of Rivaroxaban): about 25%
exposure time to low relative humidity sufficient for transformation into anhydrate form ([2]; less than 20% relative humidity): about one

O=C(NC[C@H]1CN(c2ccc(N3CCOCC3=O)cc2)C(=O)O1)c1ccc(Cl)s1 [Modification II]
higher solubility compared to modification I ([3]; described in WO 2007/039132): 4 fold

O=C(NC[C@H]1CN(c2ccc(N3CCOCC3=O)cc2)C(=O)O1)c1ccc(Cl)s1 [amorphous form]
solubility (in words) [3]: higher solubility in comparison to modification I

O=C(NC[C@H]1CN(c2ccc(N3CCOCC3=O)cc2)C(=O)O1)c1ccc(Cl)s1 [Form I of Rivaroxabin, 5-Chloro-N-({(5S)-2-oxo-3-[4-(3-oxomorpholin-4-yl]phenyl)-1,3-oxazolidin-5-yl}methyl)thiophene-2-carboxamide]
solubility (in words) [3]: relatively low solubility

O=C(NC[C@H]1CN(c2ccc(N3CCOCC3=O)cc2)C(=O)O1)c1ccc(Cl)s1.O=CO [formic acid solvate of Rivaroxaban, Rivaroxaban.Formic Acid Solvate]
stability on storage at low relative humidity (less than about 20% relative humidity at 25° C.): stable
behaviour on storage at higher relative humidity (relative humidity of more than 20%, e.g. 30%, 60% or 97%): formic acid is lost and the dihydrate of Rivaroxaban is formed
behaviour on suspending in aqueous medium (suspended in aqueous medium): pure dihydrate of Rivaroxaban is formed

From patent US9266868B2, “Crystalline form of rivaroxaban dihydrate” (SANDOZ AG, priority 2010, dated 2016)
